Source: patent US20090149484A1, “QUINAZOLIN-4-ONE DERIVATIVES, PROCESS FOR THEIR PREPARATION AND PHARMACEUTICAL COMPOSITIONS CONTAINING THEM” (ASTRAZENECA AB, priority 2006, published 2009)

Molecular target: T1, His-tagged Mutant B-Raf (V600E) enzyme (MT B-Raf) (Homo sapiens, UniProt P15056, V600E)
T1 construct: purified full length His-tagged Mutant B-Raf (V600E) enzyme; made in house; host or cells: insect cells
Experiment: B-Raf in-vitro AlphaScreen assay
Assay type: biochemical
Conditions: phosphorylation of biotinylated HIS-MEK-AVI, 0.12 nM MT B-Raf, 24 μM ATP in mix
Experimental: B-Raf in-Vitro AlphaScreen Assay
Activity of purified full length His-tagged Mutant B-Raf (V600E) enzyme (MT B-Raf) was determined in-vitro using an Amplified Luminescent Proximity Homogeneous Assay (ALPHA)(Perkin Elmer, Mass.), which measures phosphorylation of the MT B-Raf substrate, biotinylated HIS-MEK-AVI (PLAZA internal database, construct #pAZB0141), as described below. MT B-Raf was expressed in insect cells and affinity purified by Ni^+2 agarose followed by Q-Sepharose chromatography. Typical yield was 1.08 mg/ml at >90% purity. The phosphorylation of the MT B-Raf substrate in the presence and absence of the compound of interest was determined. Briefly, 5 μl of enzyme/substrate/adenosine triphosphate (ATP) mix consisting of 0.12 nM MT B-Raf, 84 nM biotinylated HIS-MEK-AVI, and 24 μM ATP in 1.2× buffer was preincubated with 2 ul of compound for 20 minutes at 25° C. Reactions were initiated with 5 μl of Metal mix consisting of 24 mM MgCl2 in 1.2× buffer and incubated at 25° C. for 60 minutes and reactions were stopped by addition of 5 μl of Detection mix consisting of 20 mM HEPES, 102 mM ethylenediamine tetraacetic acid, 1.65 mg/ml BSA, 136 mM NaCl, 3.4 nM Phospho-MEK1/2 (Ser217/221) antibody (Catalog #9121, Cell Signaling Technology, MA), 40 μg/ml Streptavidin donor beads (Perkin Elmer, MA, Catalog #6760002), and 40 μg/ml Protein A acceptor beads (Perkin Elmer, MA, Catalog #6760137). Plates were incubated at 25° C. for 18 hours in the dark. Phosphorylated substrate was detected by an EnVision plate reader (Perkin Elmer, MA) 680 nm excitation, 520-620 nm emission. Data was graphed and IC50s calculated using Excel Fit (Microsoft).

T1 sequence (P15056 whole entry V600E): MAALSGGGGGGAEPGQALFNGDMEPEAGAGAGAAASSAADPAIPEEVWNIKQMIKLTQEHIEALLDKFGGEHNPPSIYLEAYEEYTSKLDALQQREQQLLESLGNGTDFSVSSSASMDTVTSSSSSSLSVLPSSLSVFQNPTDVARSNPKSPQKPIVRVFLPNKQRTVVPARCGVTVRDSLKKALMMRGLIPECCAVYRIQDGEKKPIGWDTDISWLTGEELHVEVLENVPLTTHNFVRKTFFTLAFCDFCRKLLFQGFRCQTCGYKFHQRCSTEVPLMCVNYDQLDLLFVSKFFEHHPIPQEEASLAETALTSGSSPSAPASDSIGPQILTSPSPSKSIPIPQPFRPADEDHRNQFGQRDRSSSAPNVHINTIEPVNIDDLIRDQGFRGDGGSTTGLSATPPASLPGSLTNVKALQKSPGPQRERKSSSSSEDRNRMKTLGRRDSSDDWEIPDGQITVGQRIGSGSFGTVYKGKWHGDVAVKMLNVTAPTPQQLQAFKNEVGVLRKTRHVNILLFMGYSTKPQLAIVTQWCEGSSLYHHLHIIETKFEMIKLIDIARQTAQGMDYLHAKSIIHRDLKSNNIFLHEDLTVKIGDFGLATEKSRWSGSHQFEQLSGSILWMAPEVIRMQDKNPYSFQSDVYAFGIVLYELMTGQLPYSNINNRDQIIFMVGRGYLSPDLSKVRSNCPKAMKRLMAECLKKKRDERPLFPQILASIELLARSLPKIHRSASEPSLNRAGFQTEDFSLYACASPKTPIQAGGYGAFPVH

IC50 [nM]	Structure (SMILES)
287	Cn1cnc2ccc(Oc3ccc(NC(=O)Nc4ccc(Cl)c(C(F)(F)F)c4)cc3)cc2c1=O [Example 1, N-[4-Chloro-3-(trifluoromethyl)phenyl]-N′-{-4-[(3-methyl-4-oxo-3,4-dihydroquinazolin-6-yl)oxy]phenyl}urea]
205	Cc1cc(NC(=O)Nc2ccc(Cl)c(C(F)(F)F)c2)ccc1Oc1ccc2ncn(C)c(=O)c2c1 [Example 3, N-[4-Chloro-3-(trifluoromethyl)phenyl]-N′-{3-methyl-4-[(3-methyl-4-oxo-3,4-dihydroquinazolin-6-yl)oxy]phenyl}urea]
340	Cn1cnc2ccc(Oc3ccc(NC(=O)Nc4cccc(C(F)(F)F)c4F)cc3)cc2c1=O [Example 7, N-[2-Fluoro-3-(trifluoromethyl)phenyl]-N′-{4-[(3-methyl-4-oxo-3,4-dihydroquinazolin-6-yl)oxy]phenyl}urea]
